Literature values in US6410588B1, “Use of cannabinoids as anti-inflammatory agents” (priority 1998, dated 2002).

Tests used:
[1] = test system: antibody formation against sheep red blood cells; conditions: studies in mice; cited from earlier work
IFNγ = conditions: cited from earlier work
nitric oxide (NO) = conditions: macrophages activated by LPS and IFNγ; cited from earlier work

CCCCCc1cc(O)c2c(c1)OC(C)(C)C1CCC(C)=CC21 (stereo not shown) [THC, Delta-9-tetrahydrocannabinoid, reference compound]
antibody formation against sheep red blood cells [1]: suppresses antibody formation
IFNγ synthesis (IFNγ; high concentrations (5-24 μg/ml)): completely blocked IFNγ synthesis
IFNγ production (IFNγ; low concentrations): increase IFNγ production
nitric oxide (NO) production (nitric oxide (NO)): inhibited
